Assays:
Type in all cases: in vivo
[1] = tested on: lambsquarters (Chenopodium album, CHEAL); experiment: Greenhouse herbicide screen, pre-emerge application, phytotoxicity rating; conditions: PRE emergent, 14 days after application, rating scale 0-100
In short: (§1)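 Visual phytotoxicity scored 0–100 at 14 days, where 0 means no damage and 100 all plants dead. Compounds had been applied in acetone by track sprayer at 15–1000 g ai/ha in 187 l/ha.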

[2] = tested on: large crabgrass (Digitaria sanguinalis, DIGSA); experiment: as above; conditions: PRE emergent, 14 days after application, rating scale 0-100
In short: as §1

[3] = tested on: common ragweed (Ambrosia artemisiifolia L., AMBEL); experiment: as above; conditions: PRE emergent, 14 days after application, rating scale 0-100
In short: as §1

[4] = tested on: velvetleaf (Abutilon theophrasti, ABUTH); experiment: as above; conditions: PRE emergent, 14 days after application, rating scale 0-100
In short: as §1

[5] = tested on: johnsongrass (Sorghum halepense, SORHA); experiment: as above; conditions: PRE emergent, 14 days after application, rating scale 0-100
In short: as §1

[6] = tested on: ivyleaf morningglory (Ipomoea hederacea, IPOHE); experiment: as above; conditions: PRE emergent, 14 days after application, rating scale 0-100
In short: as §1

[7] = tested on: barnyardgrass (Echinochloa crus-galli, ECHCG); experiment: as above; conditions: PRE emergent, 14 days after application, rating scale 0-100
In short: as §1

[8] = tested on: cocklebur (Xanthium strumarium, XANST); experiment: as above; conditions: PRE emergent, 14 days after application, rating scale 0-100
In short: as §1

[9] = tested on: sicklepod (Cassia obtusifolia, CASOB); experiment: as above; conditions: PRE emergent, 14 days after application, rating scale 0-100
In short: as §1

[10] = tested on: redroot pigweed (Amaranthus retrofiexus, AMARE); experiment: as above; conditions: PRE emergent, 14 days after application, rating scale 0-100
In short: as §1

[11] = tested on: green foxtail (Setaria viridis, SETVI); experiment: as above; conditions: PRE emergent, 14 days after application, rating scale 0-100
In short: as §1

[12] = tested on: field corn (Zea mays L., var. Dekalb 535, CORN); experiment: Greenhouse herbicide screen, pre-emerge application, crop damage rating; conditions: PRE emergent, 14 days after application, rating scale 0-100
In short: as §1

[13] = tested on: upland rice (Oryza sp., var.Cocodrie, RICE); experiment: as above; conditions: PRE emergent, 14 days after application, rating scale 0-100
In short: as §1

[14] = tested on: lambsquarters (Chenopodium album, CHEAL); experiment: Greenhouse herbicide screen, post-emerge application, phytotoxicity rating; conditions: POST emergent, 14 days after application, scale 0-100
In short: as §1

[15] = tested on: large crabgrass (Digitaria sanguinalis, DIGSA); experiment: as above; conditions: POST emergent, 14 days after application, scale 0-100
In short: as §1

[16] = tested on: common ragweed (Ambrosia artemisiifolia L., AMBEL); experiment: as above; conditions: POST emergent, 14 days after application, scale 0-100
In short: as §1

[17] = tested on: velvetleaf (Abutilon theophrasti, ABUTH); experiment: as above; conditions: POST emergent, 14 days after application, scale 0-100
In short: as §1

[18] = tested on: johnsongrass (Sorghum halepense, SORHA); experiment: as above; conditions: POST emergent, 14 days after application, scale 0-100
In short: as §1

[19] = tested on: ivyleaf morningglory (Ipomoea hederacea, IPOHE); experiment: as above; conditions: POST emergent, 14 days after application, scale 0-100
In short: as §1

[20] = tested on: barnyardgrass (Echinochloa crus-galli, ECHCG); experiment: as above; conditions: POST emergent, 14 days after application, scale 0-100
In short: as §1

[21] = tested on: cocklebur (Xanthium strumarium, XANST); experiment: as above; conditions: POST emergent, 14 days after application, scale 0-100
In short: as §1

[22] = tested on: sicklepod (Cassia obtusifolia, CASOB); experiment: as above; conditions: POST emergent, 14 days after application, scale 0-100
In short: as §1

[23] = tested on: redroot pigweed (Amaranthus retrofiexus, AMARE); experiment: as above; conditions: POST emergent, 14 days after application
In short: as §1

[24] = tested on: green foxtail (Setaria viridis, SETVI); experiment: as above; conditions: POST emergent, 14 days after application, scale 0-100
In short: as §1

[25] = tested on: field corn (Zea mays L., var. Dekalb 535, CORN); experiment: Greenhouse herbicide screen, post-emerge application, crop damage rating; conditions: POST emergent, 14 days after application, scale 0-100
In short: as §1

[26] = tested on: upland rice (Oryza sp., var.Cocodrie, RICE); experiment: as above; conditions: POST emergent, 14 days after application, scale 0-100
In short: as §1

[27] = 63 g ai/ha, scale 0-100 (0 no damage, 100 complete death)

Cn1c(C(F)(F)F)cc(=O)n(-c2cc(C(=O)NN3CCCC3)c(Cl)cc2F)c1=O [Compound 1-11]
phytotoxicity rating CHEAL ([1]; 63 g ai/ha): 100
phytotoxicity rating CHEAL ([1]; 250 g ai/ha): 100
phytotoxicity rating DIGSA ([2]; 63 g ai/ha): 50
phytotoxicity rating DIGSA ([2]; 250 g ai/ha): 100
phytotoxicity rating AMBEL ([3]; 63 g ai/ha): 60
phytotoxicity rating AMBEL ([3]; 250 g ai/ha): 98
phytotoxicity rating ABUTH ([4]; 63 g ai/ha): 100
phytotoxicity rating ABUTH ([4]; 250 g ai/ha): 100
phytotoxicity rating SORHA ([5]; 63 g ai/ha): 35
phytotoxicity rating SORHA ([5]; 250 g ai/ha): 99
phytotoxicity rating IPOHE ([6]; 63 g ai/ha): 70
phytotoxicity rating IPOHE ([6]; 250 g ai/ha): 100
phytotoxicity rating ECHCG ([7]; 63 g ai/ha): 15
phytotoxicity rating ECHCG ([7]; 250 g ai/ha): 99
phytotoxicity rating XANST ([8]; 63 g ai/ha): 0
phytotoxicity rating XANST ([8]; 250 g ai/ha): 40
phytotoxicity rating CASOB ([9]; 63 g ai/ha): 70
phytotoxicity rating CASOB ([9]; 250 g ai/ha): 99
phytotoxicity rating AMARE ([10]; 63 g ai/ha): 100
phytotoxicity rating AMARE ([10]; 250 g ai/ha): 100
phytotoxicity rating SETVI ([11]; 63 g ai/ha): 50
phytotoxicity rating SETVI ([11]; 250 g ai/ha): 100
crop damage rating CORN ([12]; 63 g ai/ha): 0
crop damage rating CORN ([12]; 250 g ai/ha): 50
crop damage rating RICE ([13]; 63 g ai/ha): 5
crop damage rating RICE ([13]; 250 g ai/ha): 55
phytotoxicity rating CHEAL ([14]; 63 g ai/ha): 90
phytotoxicity rating CHEAL ([14]; 250 g ai/ha): 100
phytotoxicity rating DIGSA ([15]; 63 g ai/ha): 40
phytotoxicity rating DIGSA ([15]; 250 g ai/ha): 55
phytotoxicity rating AMBEL ([16]; 63 g ai/ha): 99
phytotoxicity rating AMBEL ([16]; 250 g ai/ha): 100
phytotoxicity rating ABUTH ([17]; 63 g ai/ha): 100
phytotoxicity rating ABUTH ([17]; 250 g ai/ha): 100
phytotoxicity rating SORHA ([18]; 63 g ai/ha): 70
phytotoxicity rating SORHA ([18]; 250 g ai/ha): 80
phytotoxicity rating IPOHE ([19]; 63 g ai/ha): 100
phytotoxicity rating IPOHE ([19]; 250 g ai/ha): 100
phytotoxicity rating ECHCO ([20]; 63 g ai/ha): 70
phytotoxicity rating ECHCO ([20]; 250 g ai/ha): 100
phytotoxicity rating XANST ([21]; 63 g ai/ha): 75
phytotoxicity rating XANST ([21]; 250 g ai/ha): 100
phytotoxicity rating CASOB ([22]; 63 g ai/ha): 15
phytotoxicity rating CASOB ([22]; 250 g ai/ha): 80
phytotoxicity rating AMARE [23, 27]: 100
phytotoxicity rating AMARE ([23]; 250 g ai/ha, scale 0-100): 100
phytotoxicity rating SETVI ([24]; 63 g ai/ha): 50
phytotoxicity rating SETVI ([24]; 250 g ai/ha): 55
crop damage rating CORN ([25]; 63 g ai/ha): 35
crop damage rating CORN ([25]; 250 g ai/ha): 95
crop damage rating RICE ([26]; 63 g ai/ha): 65
crop damage rating RICE ([26]; 250 g ai/ha): 65

CN(C)NC(=O)c1cc(-n2c(=O)cc(C(F)(F)F)n(C)c2=O)ccc1Cl [Compound 1-4]
phytotoxicity rating CHEAL ([1]; 63 g ai/ha): 15
phytotoxicity rating CHEAL ([1]; 250 g ai/ha): 100
phytotoxicity rating DIGSA ([2]; 63 g ai/ha): 0
phytotoxicity rating DIGSA ([2]; 250 g ai/ha): 60
phytotoxicity rating AMBEL ([3]; 63 g ai/ha): 0
phytotoxicity rating AMBEL ([3]; 250 g ai/ha): 40
phytotoxicity rating ABUTH ([4]; 63 g ai/ha): 30
phytotoxicity rating ABUTH ([4]; 250 g ai/ha): 99
phytotoxicity rating SORHA ([5]; 63 g ai/ha): 0
phytotoxicity rating SORHA ([5]; 250 g ai/ha): 35
phytotoxicity rating IPOHE ([6]; 63 g ai/ha): 75
phytotoxicity rating IPOHE ([6]; 250 g ai/ha): 100
phytotoxicity rating ECHCG ([7]; 63 g ai/ha): 0
phytotoxicity rating ECHCG ([7]; 250 g ai/ha): 40
phytotoxicity rating XANST ([8]; 63 g ai/ha): 0
phytotoxicity rating XANST ([8]; 250 g ai/ha): 60
phytotoxicity rating CASOB ([9]; 63 g ai/ha): 0
phytotoxicity rating CASOB ([9]; 250 g ai/ha): 90
phytotoxicity rating AMARE ([10]; 63 g ai/ha): 40
phytotoxicity rating AMARE ([10]; 250 g ai/ha): 95
phytotoxicity rating SETVI ([11]; 63 g ai/ha): 0
phytotoxicity rating SETVI ([11]; 250 g ai/ha): 35
crop damage rating CORN ([12]; 63 g ai/ha): 35
crop damage rating CORN ([12]; 250 g ai/ha): 75
crop damage rating RICE ([13]; 63 g ai/ha): 0
crop damage rating RICE ([13]; 250 g ai/ha): 8
phytotoxicity rating CHEAL ([14]; 63 g ai/ha): 99
phytotoxicity rating CHEAL ([14]; 250 g ai/ha): 100
phytotoxicity rating DIGSA ([15]; 63 g ai/ha): 35
phytotoxicity rating DIGSA ([15]; 250 g ai/ha): 55
phytotoxicity rating AMBEL ([16]; 63 g ai/ha): 80
phytotoxicity rating AMBEL ([16]; 250 g ai/ha): 100
phytotoxicity rating ABUTH ([17]; 63 g ai/ha): 100
phytotoxicity rating ABUTH ([17]; 250 g ai/ha): 100
phytotoxicity rating SORHA ([18]; 63 g ai/ha): 50
phytotoxicity rating SORHA ([18]; 250 g ai/ha): 80
phytotoxicity rating IPOHE ([19]; 63 g ai/ha): 100
phytotoxicity rating IPOHE ([19]; 250 g ai/ha): 100
phytotoxicity rating ECHCO ([20]; 63 g ai/ha): 65
phytotoxicity rating ECHCO ([20]; 250 g ai/ha): 95
phytotoxicity rating XANST ([21]; 63 g ai/ha): 100
phytotoxicity rating XANST ([21]; 250 g ai/ha): 100
phytotoxicity rating CASOB ([22]; 63 g ai/ha): 70
phytotoxicity rating CASOB ([22]; 250 g ai/ha): 80
phytotoxicity rating AMARE [23, 27]: 100
phytotoxicity rating AMARE ([23]; 250 g ai/ha, scale 0-100): 100
phytotoxicity rating SETVI ([24]; 63 g ai/ha): 65
phytotoxicity rating SETVI ([24]; 250 g ai/ha): 75
crop damage rating CORN ([25]; 63 g ai/ha): 65
crop damage rating CORN ([25]; 250 g ai/ha): 99
crop damage rating RICE ([26]; 63 g ai/ha): 10
crop damage rating RICE ([26]; 250 g ai/ha): 65
